Measurements from the supplement of paper PMC10307832.

Legend:
Experiment in all cases: relative viability (nuclei count vs DMSO), 5 days (fraction); higher = more cells survive
Lestaurtinib + Dasatinib = compound: C[C@]12O[C@H](C[C@]1(O)CO)n1c3ccccc3c3c4c(c5c6ccccc6n2c5c31)CNC4=O [Lestaurtinib] + Cc1nc(Nc2ncc(C(=O)Nc3c(C)cccc3Cl)s2)cc(N2CCN(CCO)CC2)n1 [Dasatinib] (partner 0.075 µM)
In short: (§1)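 Medians of duplicate plates are given as relative viability. That measure is the nuclei count in treated wells divided by the count in vehicle wells. Counts were taken on 4× images of lung cancer cell lines in 1536-well plates, 5 days after pin-tool dosing the day after seeding with one drug alone or a fixed anchor-drug dose plus five library-drug doses (not always all listed) in √10 steps.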

[1] = compound: C1/C(=C\C2=CC=CS2)/C(=O)/C(=C/C3=CC=CS3)/C1 + N=C(N)NC(=N)NCCc1ccccc1 [Phenformin] (partner 250 µM)
In short: as §1

TPCA-1 + Lapatinib = compound: C1=CC(=CC=C1C2=CC(=C(S2)NC(=O)N)C(=O)N)F [TPCA-1] + CS(=O)(=O)CCNCc1ccc(-c2ccc3ncnc(Nc4ccc(OCc5cccc(F)c5)c(Cl)c4)c3c2)o1 [Lapatinib] (partner 2 µM)
In short: as §1

[2] = compound: C[C@]12O[C@H](C[C@]1(O)CO)n1c3ccccc3c3c4c(c5c6ccccc6n2c5c31)CNC4=O [Lestaurtinib] + CCNC(=O)c1noc(-c2cc(C(C)C)c(O)cc2O)c1-c1ccc(CN2CCOCC2)cc1 [Luminespib] (partner 0.01 µM)
In short: as §1

UMC-11
relative viability (Lestaurtinib + Dasatinib; first compound 0.005 µM): 0.543
relative viability (Lestaurtinib + Dasatinib; first compound 0.01581 µM): 0.501
relative viability (Lestaurtinib + Dasatinib; first compound 0.05 µM): 0.247
relative viability (Lestaurtinib + Dasatinib; first compound 0.1581 µM): 0.231
relative viability (Lestaurtinib + Dasatinib; first compound 0.5 µM): 0.146
relative viability ([1]; first compound 0.2 µM): 0.32
relative viability ([1]; first compound 0.6325 µM): 0.365
relative viability ([1]; first compound 20 µM): 0.324
relative viability (TPCA-1 + Lapatinib; first compound 0.04 µM): 1.18
relative viability (TPCA-1 + Lapatinib; first compound 0.1265 µM): 0.754
relative viability (TPCA-1 + Lapatinib; first compound 0.4 µM): 0.69
relative viability (TPCA-1 + Lapatinib; first compound 1.265 µM): 0.956
relative viability (TPCA-1 + Lapatinib; first compound 4 µM): 0.178
relative viability ([2]; first compound 0.005 µM): 0.936
relative viability ([2]; first compound 0.01581 µM): 0.992
relative viability ([2]; first compound 0.05 µM): 0.675
relative viability ([2]; first compound 0.1581 µM): 0.286
relative viability ([2]; first compound 0.5 µM): 0.164
